Key:
[1] = Cytotoxic activity (MTT) against normal gingival fibroblast HGF; format: cell-based; conditions: human, HGF normal gingival fibroblasts, HGF normal oral cells, 48 h incubation
Protocol: (§1) Human normal oral mesenchymal cells, gingival fibroblast (HGF), and periodontal ligament fibroblast (HPLF) established from the first premolar tooth extracted from the lower jaw of a child[47] and human OSCC cell line HSC-2 (derived from tongue), purchased from Riken Cell Bank (Tsukuba, Japan), were cultured at 37 °C in DMEM supplemented with 10% heat-inactivated FBS, 100 units/ml penicillin G, and 100 µg/ml streptomycin sulphate under a humidified 5% CO2 atmosphere. HGF and HPLF cells at 10–18 population doubling levels were used in this study.
(§2) Cells were inoculated at 2.5 × 10^3 cells/0.1 ml in a 96-microwell plate (Becton Dickinson Labware, Franklin Lakes, NJ). After 48 h, the medium was replaced with 0.1 ml of fresh medium containing different concentrations of single test compounds. Cells were incubated further for 48 h and the relative viable cell number was then determined by the MTT method[22]^,[48–54]. All benzoxazolone derivatives were dissolved with DMSO at the concentration of 40 mM and stored until use. Control cells were treated with the same amounts of DMSO ([…], 0.03125, 0.0625, 0.125, 0.25, 0.5, and 1.0%) and the cell damage induced by DMSO was subtracted from that induced by test agents. In brief, cells were stained with MTT reagent, dissolved with DMSO, and the absorbance of the MTT-stained cell lysate was measured at 560 nm, using a microplate reader (Infinite F 50R, TECAN, Kawasaki, Japan). […]

hCA I = hCA I (Homo sapiens, UniProt P00915); test: Carbonic anhydrase inhibition, hCA I; format: biochemical; conditions: for Ki: Lineweaver–Burk, three concentrations
Sequence of hCA I (P00915 whole entry): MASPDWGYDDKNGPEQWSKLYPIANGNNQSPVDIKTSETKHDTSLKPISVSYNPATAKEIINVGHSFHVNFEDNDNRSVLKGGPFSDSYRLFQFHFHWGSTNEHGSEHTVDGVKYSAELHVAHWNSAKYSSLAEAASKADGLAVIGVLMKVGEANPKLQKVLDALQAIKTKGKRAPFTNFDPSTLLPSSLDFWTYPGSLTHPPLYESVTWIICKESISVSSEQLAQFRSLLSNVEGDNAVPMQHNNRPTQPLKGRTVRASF
Protocol: (§3) The purification of cytosolic CA isoenzymes (CA I and CA II) was previously described with a simple one-step method by a Sepharose-4B-L tyrosine-sulphanilamide affinity chromatography[42]^,[53]^,[55–58]. The protein quantity in the column effluents was determined spectrophotometrically at 280 nm. Sodium dodecyl sulphate-polyacrylamide gel electrophoresis (SDS-PAGE) was applied with a Bio-Rad Mini Gel system Mini-PROTEIN system (Bio-Rad Laboratories, Inc., Shanghai, China) after purification of both CA isoenzymes. Briefly, it was performed in acrylamide for the running (10%) and the stacking gel (3%) contained SDS (0.1%), respectively. […] Bovine serum albumin was used as a standard protein. The IC50 values were obtained from activity (%) versus compounds plots. For the calculation of Ki values, three different concentrations were used. The Lineweaver–Burk curves were drawn and calculations were realised as before.

[2] = Cytotoxic activity (MTT), mean over human normal oral cells; format: cell-based; conditions: HGF and HPLF normal oral fibroblasts (mean of both), read-out: CC50 Human normal oral cells Mean (B)
Protocol: as §1, §2
(§4) Tumour specificity (TS) was calculated using the following equation: TS = Mean CC50 against three normal oral cell types (HGF, HPLF)/Mean CC50 against four OSCC cell lines (HSC-2). Since HGF cells were derived from gingival tissue, the relative sensitivity of these cells was also compared (as mean CC50 against HGF/mean CC50 against HSC-2).

[3] = Cytotoxic activity (MTT) against normal periodontal ligament fibroblast HPLF; format: cell-based; conditions: human, HPLF normal periodontal ligament fibroblasts, HPLF normal oral cells, 48 h incubation
Protocol: as §1, §2

HSC-2 = test: Cytotoxic activity (MTT) against OSCC cell line HSC-2; format: cell-based, human; conditions: for CC50: Homo sapiens, HSC-2, 48 h incubation, MTT, triplicate; for PSE (B/A2)×100: potency-selectivity expression = mean CC50 normal cells / (CC50 HSC-2)^2 × 100; for TS (B/A): tumour specificity = mean CC50 normal cells (HGF, HPLF) / CC50 HSC-2; for increase in cytotoxicity compared to non-substituted compound 1: HSC-2 CC50 ratio versus compound 1; for increase in TS (selectivity) compared to compound 1: TS ratio versus compound 1
Protocol: as §1, §2, §4

hCA II = hCA II (Homo sapiens, UniProt P00918); test: Carbonic anhydrase inhibition, hCA II; format: biochemical; conditions: for Ki: Lineweaver–Burk, three concentrations
Protocol: as §3

Compound: O=C(C=Cc1ccccc1)c1ccc2[nH]c(=O)oc2c1 [Compound 1, 6-(3-Phenyl-2-propenoyl)-3H-benzoxazol-2-one]
- CC50 at 48 h [1]: 71 µM
- melting point: 230 to 232 °C
- IC50 (hCA I): 58.7 µM
- Ki (hCA I): 70.6 ± 6.67 µM
- CC50 at 48 h [2]: 77.2 µM
- CC50 at 48 h [3]: 83.3 µM
- CC50 (HSC-2): 22.1 µM
- PSE (B/A2)×100 (HSC-2): 16
- TS (B/A) (HSC-2): 3.5
- IC50 (hCA II): 40.5 µM
- Ki (hCA II): 36.2 ± 13.3 µM

Compound: Cc1ccc(C=CC(=O)c2ccc3[nH]c(=O)oc3c2)cc1 [Compound 2, 6-[3-(4-Metyhlphenyl)-2-propenoyl]-3H-benzoxazol-2-one]
- CC50 at 48 h [1]: 87.7 µM
- melting point: 258 to 260 °C
- IC50 (hCA I): 33 µM
- Ki (hCA I): 38.8 ± 1.93 µM
- CC50 at 48 h [2]: 96.5 µM
- CC50 at 48 h [3]: 105 µM
- increase in cytotoxicity compared to non-substituted compound 1 (HSC-2): 2.2 times
- CC50 (HSC-2): 10.1 µM
- increase in TS (selectivity) compared to compound 1 (HSC-2): 2.7 times
- PSE (B/A2)×100 (HSC-2): 94
- TS (B/A) (HSC-2): 9.5
- IC50 (hCA II): 45.6 µM
- Ki (hCA II): 32.1 ± 6.6 µM

Compound: COc1ccc(C=CC(=O)c2ccc3[nH]c(=O)oc3c2)cc1 [Compound 3, 6-[3-(4-Methoxyphenyl)-2-propenoyl]-3H-benzoxazol-2-one]
- CC50 at 48 h [1]: 88.3 µM
- melting point: 210 to 213 °C
- IC50 (hCA I): 47.5 µM
- Ki (hCA I): 30.5 ± 11.3 µM
- CC50 at 48 h [2]: 86.2 µM
- CC50 at 48 h [3]: 84 µM
- increase in cytotoxicity compared to non-substituted compound 1 (HSC-2): 1.5 times
- CC50 (HSC-2): 14.5 µM
- PSE (B/A2)×100 (HSC-2): 41
- TS (B/A) (HSC-2): 5.9
- IC50 (hCA II): 48.1 µM
- Ki (hCA II): 36.2 ± 10.3 µM

Compound: O=C(C=Cc1ccc(C(F)(F)F)cc1)c1ccc2[nH]c(=O)oc2c1 [Compound 4, 6-[3-(4-Trifluoromethylphenyl)-2-propenoyl]-3H-benzoxazol-2-one]
- CC50 at 48 h [1]: 24.7 µM
- IC50 (hCA I): 29.7 µM
- Ki (hCA I): 30.8 ± 3.49 µM
- CC50 at 48 h [2]: 25.5 µM
- CC50 at 48 h [3]: 26.3 µM
- times more cytotoxic than 5-FU (HSC-2; HSC-2 CC50 ratio versus 5-FU): 9.4 times
- times low cytotoxic than DXR (HSC-2; HSC-2 CC50 ratio versus DXR): 8 times
- increase in cytotoxicity compared to non-substituted compound 1 (HSC-2): 5.5 times
- CC50 (HSC-2): 4 µM
- PSE value higher than 5-FU (HSC-2; PSE ratio versus 5-FU): about 2 times
- PSE value compared to compound 1 (HSC-2; PSE ratio versus compound 1): 9.9 times
- increase in TS (selectivity) compared to compound 1 (HSC-2): 1.8 times
- PSE (B/A2)×100 (HSC-2): 159
- TS (B/A) (HSC-2): 6.4
- IC50 (hCA II): 45 µM
- Ki (hCA II): 19.2 ± 2.19 µM

Compound: O=C(C=Cc1cccc(O)c1)c1ccc2[nH]c(=O)oc2c1 [Compound 5, 6-[3-(3-Hydroxyphenyl)-2-propenoyl]-3H-benzoxazol-2-one]
- CC50 at 48 h [1]: 55.4 µM
- melting point: 277 to 279 °C
- IC50 (hCA I): 69.6 µM
- Ki (hCA I): 63 ± 15.4 µM
- CC50 at 48 h [2]: 52.9 µM
- CC50 at 48 h [3]: 50.3 µM
- CC50 (HSC-2): 6.9 µM
- PSE (B/A2)×100 (HSC-2): 111
- TS (B/A) (HSC-2): 7.7
- IC50 (hCA II): 48.5 µM
- Ki (hCA II): 35.2 ± 8.36 µM

Compound: O=c1[nH]cc(F)c(=O)[nH]1 [Compound 5-FU, 5-Fluorouracil, reference compound]
- CC50 at 48 h [1]: > 1000 µM
- CC50 at 48 h [2]: > 1000 µM
- CC50 at 48 h [3]: > 1000 µM
- CC50 (HSC-2): 37.7 µM
- PSE (B/A2)×100 (HSC-2): 80.7

Compound: CC(C)c1ccc(C=CC(=O)c2ccc3[nH]c(=O)oc3c2)cc1 [Compound 6, 6-[3-(4-Isopropylphenyl)-2-propenoyl]-3H-benzoxazol-2-one]
- CC50 at 48 h [1]: 53 µM
- melting point: 220 to 222 °C
- IC50 (hCA I): 52.1 µM
- Ki (hCA I): 37.1 ± 7.77 µM
- CC50 at 48 h [2]: 64.5 µM
- CC50 at 48 h [3]: 76 µM
- increase in cytotoxicity compared to non-substituted compound 1 (HSC-2): 2.2 times
- CC50 (HSC-2): 10.1 µM
- increase in TS (selectivity) compared to compound 1 (HSC-2): 1.8 times
- PSE (B/A2)×100 (HSC-2): 64
- TS (B/A) (HSC-2): 6.4
- IC50 (hCA II): 30.1 µM
- Ki (hCA II): 33.3 ± 6.15 µM

Compound: CN(C)c1ccc(C=CC(=O)c2ccc3[nH]c(=O)oc3c2)cc1 [Compound 7, 6-[3-(4-Dimethylaminophenyl)-2-propenoyl]-3H-benzoxazol-2-one]
- CC50 at 48 h [1]: 76.3 µM
- melting point: 248 to 250 °C
- IC50 (hCA I): 40.3 µM
- Ki (hCA I): 52.3 ± 9.97 µM
- CC50 at 48 h [2]: 73.2 µM
- CC50 at 48 h [3]: 70 µM
- cytotoxicity reduced compared to compound 1 (HSC-2; HSC-2 CC50 ratio versus compound 1, decrease): 1.4 times
- CC50 (HSC-2): 30.2 µM
- PSE (B/A2)×100 (HSC-2): 8
- TS (B/A) (HSC-2): 2.4
- IC50 (hCA II): 29.7 µM
- Ki (hCA II): 10.8 ± 2.14 µM

Compound: O=C(C=Cc1ccc(OCc2ccccc2)cc1)c1ccc2[nH]c(=O)oc2c1 [Compound 8, 6-[3-(4-Benzyloxyphenyl)-2-propenoyl]-3H-benzoxazol-2-one]
- CC50 at 48 h [1]: 98 µM
- melting point: 243 to 245 °C
- IC50 (hCA I): 57.7 µM
- Ki (hCA I): 28.4 ± 6.63 µM
- CC50 at 48 h [2]: 65.3 µM
- CC50 at 48 h [3]: 32.7 µM
- increase in cytotoxicity compared to non-substituted compound 1 (HSC-2): 1.9 times
- CC50 (HSC-2): 11.9 µM
- PSE (B/A2)×100 (HSC-2): 46
- TS (B/A) (HSC-2): 5.5
- IC50 (hCA II): 18.1 µM
- Ki (hCA II): 38 ± 2.36 µM

Compound: COc1cccc2c1C(=O)c1c(O)c3c(c(O)c1C2=O)C[C@@](O)(C(=O)CO)C[C@@H]3O[C@H]1C[C@H](N)[C@H](O)[C@H](C)O1 [DXR, Doxorubicin, reference compound]
- CC50 at 48 h [1]: 0.7 µM
- CC50 at 48 h [2]: > 5.3 µM
- CC50 at 48 h [3]: > 10 µM
- CC50 (HSC-2): 0.5 µM
- PSE (B/A2)×100 (HSC-2): >2030

From paper PMC6781194, “Synthesis, cytotoxicities, and carbonic anhydrase inhibition potential of 6-(3-aryl-2-propenoyl)-2(3H)-benzoxazolones” (Journal of Enzyme Inhibition and Medicinal Chemistry, 2019)
